Measurements: the NIST ThermoML archive (doi:10.1016/j.fluid.2019.112274)

Settings: Liquid; for thermal diffusivity: Dynamic light scattering; for speed of sound: Brillouin light scattering

CCCCCCCCCC(=O)OCC [ethyl decanoate]
Settings | speed of sound [m/s] | thermal diffusivity [m2/s]
295.34 K, 5000 kPa | – | 8.46e-08
295.57 K, 10000 kPa | – | 8.67e-08
295.72 K, 7000 kPa | – | 8.54e-08
296.25 K, 3000 kPa | – | 8.37e-08
296.31 K, 100 kPa | – | 8.23e-08
300.71 K, 7000 kPa | 1302.7 | –
300.78 K, 100 kPa | 1283.2 | –
300.78 K, 10000 kPa | 1329.5 | –
300.79 K, 3000 kPa | 1290.7 | –
300.81 K, 5000 kPa | 1295.7 | –
310.13 K, 10000 kPa | – | 8.5e-08
310.16 K, 5000 kPa | – | 8.28e-08
310.19 K, 7000 kPa | – | 8.37e-08
310.26 K, 3000 kPa | – | 8.19e-08
310.29 K, 100 kPa | – | 8.05e-08
310.58 K, 10000 kPa | 1301.3 | –
310.85 K, 100 kPa | 1248.4 | –
310.85 K, 5000 kPa | 1265 | –
310.93 K, 7000 kPa | 1271.5 | –
311.01 K, 3000 kPa | 1258.4 | –
320.9 K, 100 kPa | 1213.6 | –
320.91 K, 5000 kPa | 1233.3 | –
320.94 K, 3000 kPa | 1226.4 | –
320.98 K, 7000 kPa | 1241.3 | –
321 K, 10000 kPa | 1269.6 | –
324.97 K, 5000 kPa | – | 8.07e-08
325.08 K, 7000 kPa | – | 8.16e-08
325.11 K, 3000 kPa | – | 7.98e-08
325.16 K, 10000 kPa | – | 8.29e-08
325.23 K, 100 kPa | – | 7.85e-08
330.76 K, 3000 kPa | 1192.9 | –
330.77 K, 7000 kPa | 1210.4 | –
330.79 K, 10000 kPa | 1239.7 | –
330.81 K, 100 kPa | 1178.4 | –
330.87 K, 5000 kPa | 1199.5 | –
339.12 K, 7000 kPa | 1183 | –
339.89 K, 10000 kPa | – | 8.08e-08
340.05 K, 7000 kPa | – | 7.95e-08
340.11 K, 5000 kPa | – | 7.86e-08
340.16 K, 3000 kPa | – | 7.78e-08
340.18 K, 100 kPa | – | 7.64e-08
340.24 K, 100 kPa | 1144.5 | –
340.56 K, 10000 kPa | 1209.4 | –
340.76 K, 5000 kPa | 1166.4 | –
340.79 K, 3000 kPa | 1157.6 | –
350.12 K, 10000 kPa | 1179.1 | –
350.77 K, 3000 kPa | 1124.1 | –
350.89 K, 7000 kPa | 1145.9 | –
350.97 K, 5000 kPa | 1133.3 | –
350.99 K, 100 kPa | 1106.3 | –
355.14 K, 5000 kPa | – | 7.65e-08
355.19 K, 100 kPa | – | 7.44e-08
355.22 K, 7000 kPa | – | 7.74e-08
355.25 K, 10000 kPa | – | 7.86e-08
355.26 K, 3000 kPa | – | 7.57e-08
360.27 K, 10000 kPa | 1145.7 | –
360.32 K, 100 kPa | 1073.2 | –
360.51 K, 5000 kPa | 1102.5 | –
360.55 K, 7000 kPa | 1115.4 | –
360.75 K, 3000 kPa | 1090.9 | –
369.47 K, 10000 kPa | 1115.6 | –
369.75 K, 3000 kPa | – | 7.34e-08
369.77 K, 7000 kPa | – | 7.5e-08
369.78 K, 5000 kPa | – | 7.42e-08
369.78 K, 10000 kPa | – | 7.63e-08
369.85 K, 100 kPa | – | 7.21e-08
371.22 K, 100 kPa | 1035.6 | –
371.22 K, 7000 kPa | 1081.7 | –
371.31 K, 5000 kPa | 1068.1 | –
371.46 K, 3000 kPa | 1054.6 | –
379.56 K, 7000 kPa | 1055.4 | –
379.62 K, 5000 kPa | 1040.4 | –
379.78 K, 100 kPa | 1005.8 | –
379.78 K, 3000 kPa | 1026.4 | –
383.22 K, 10000 kPa | 1069.6 | –
384.3 K, 3000 kPa | – | 7.11e-08
384.31 K, 100 kPa | – | 6.99e-08
384.31 K, 7000 kPa | – | 7.28e-08
384.32 K, 5000 kPa | – | 7.2e-08
384.32 K, 10000 kPa | – | 7.4e-08
389.06 K, 100 kPa | 973.3 | –
389.19 K, 5000 kPa | 1010.9 | –
389.22 K, 7000 kPa | 1025 | –
389.32 K, 3000 kPa | 996.7 | –
392.15 K, 10000 kPa | 1042.5 | –
399.55 K, 10000 kPa | – | 7.23e-08
399.56 K, 3000 kPa | – | 6.95e-08
399.57 K, 7000 kPa | – | 7.11e-08
399.6 K, 100 kPa | – | 6.82e-08
399.6 K, 5000 kPa | – | 7.03e-08
400.76 K, 100 kPa | 933.3 | –
400.79 K, 3000 kPa | 958.4 | –
400.81 K, 7000 kPa | 989.3 | –
400.9 K, 5000 kPa | 973.6 | –
401.26 K, 10000 kPa | 1015 | –
408.81 K, 3000 kPa | 933.4 | –
409.55 K, 5000 kPa | 946.8 | –
410.3 K, 7000 kPa | 960.7 | –
410.85 K, 100 kPa | 900.2 | –
411.61 K, 10000 kPa | 983.4 | –
414.33 K, 10000 kPa | – | 7.01e-08
414.35 K, 3000 kPa | – | 6.73e-08
414.36 K, 7000 kPa | – | 6.89e-08
414.41 K, 5000 kPa | – | 6.81e-08
414.43 K, 100 kPa | – | 6.61e-08
419.6 K, 100 kPa | 871.4 | –
419.67 K, 3000 kPa | 899.1 | –
419.68 K, 5000 kPa | 915 | –
419.73 K, 7000 kPa | 932.2 | –
423.29 K, 10000 kPa | 949.4 | –
429.05 K, 5000 kPa | – | 6.58e-08
429.1 K, 3000 kPa | – | 6.5e-08
429.14 K, 100 kPa | – | 6.39e-08
429.25 K, 10000 kPa | – | 6.78e-08
429.56 K, 100 kPa | 839.8 | –
429.56 K, 3000 kPa | 868.5 | –
429.6 K, 5000 kPa | 884.8 | –
430.45 K, 7000 kPa | 901.1 | –
432.01 K, 10000 kPa | 925 | –
439.2 K, 10000 kPa | 903.9 | –
439.28 K, 100 kPa | 809.5 | –
439.85 K, 3000 kPa | 836.6 | –
440.02 K, 5000 kPa | 854.6 | –
440.37 K, 7000 kPa | 871.6 | –
444.19 K, 100 kPa | – | 6.21e-08
444.35 K, 5000 kPa | – | 6.4e-08
444.38 K, 3000 kPa | – | 6.32e-08
444.46 K, 10000 kPa | – | 6.59e-08
448.51 K, 10000 kPa | 878.1 | –
449.52 K, 7000 kPa | 845.4 | –
450.25 K, 3000 kPa | 805.8 | –
450.25 K, 5000 kPa | 825.6 | –
451.03 K, 100 kPa | 773.3 | –
458.86 K, 5000 kPa | 801.3 | –
459.76 K, 100 kPa | – | 5.97e-08
459.85 K, 3000 kPa | 778.6 | –
459.9 K, 3000 kPa | – | 6.09e-08
460 K, 10000 kPa | – | 6.34e-08
460.01 K, 7000 kPa | – | 6.23e-08
460.11 K, 100 kPa | 746.8 | –
460.12 K, 5000 kPa | – | 6.16e-08
460.2 K, 7000 kPa | 816 | –
463.71 K, 10000 kPa | 837.3 | –
469.25 K, 3000 kPa | 752.4 | –
469.28 K, 5000 kPa | 771.9 | –
469.32 K, 7000 kPa | 792 | –
469.45 K, 100 kPa | 719.5 | –
470.42 K, 10000 kPa | 819.1 | –
475.26 K, 3000 kPa | – | 5.84e-08
475.27 K, 100 kPa | – | 5.74e-08
475.31 K, 7000 kPa | – | 5.99e-08
475.31 K, 10000 kPa | – | 6.1e-08
475.35 K, 5000 kPa | – | 5.92e-08
479.25 K, 100 kPa | 691.6 | –
479.29 K, 3000 kPa | 724.5 | –
479.47 K, 7000 kPa | 764.5 | –
479.9 K, 5000 kPa | 743.2 | –
481.5 K, 10000 kPa | 791.1 | –
488.69 K, 7000 kPa | 740.9 | –
489.53 K, 3000 kPa | – | 5.62e-08
489.54 K, 5000 kPa | – | 5.69e-08
489.54 K, 7000 kPa | – | 5.76e-08
489.54 K, 10000 kPa | – | 5.87e-08
489.57 K, 100 kPa | – | 5.52e-08
490.41 K, 5000 kPa | 715.7 | –
490.81 K, 3000 kPa | 693.8 | –
492.02 K, 10000 kPa | 764.5 | –
499.48 K, 10000 kPa | 745.9 | –
500.41 K, 5000 kPa | 690.3 | –
500.55 K, 7000 kPa | 711.6 | –
500.76 K, 3000 kPa | 667.8 | –
504.58 K, 5000 kPa | – | 5.45e-08
504.77 K, 7000 kPa | – | 5.52e-08
504.79 K, 3000 kPa | – | 5.39e-08
504.94 K, 10000 kPa | – | 5.62e-08
505.38 K, 100 kPa | – | 5.28e-08
509.33 K, 10000 kPa | 722.7 | –
510.27 K, 5000 kPa | 666.3 | –
510.41 K, 7000 kPa | 686.9 | –
510.65 K, 3000 kPa | 642.8 | –
519.26 K, 3000 kPa | – | 5.2e-08
519.36 K, 5000 kPa | – | 5.26e-08
519.41 K, 7000 kPa | – | 5.33e-08
519.6 K, 10000 kPa | – | 5.43e-08
520.04 K, 10000 kPa | 696.8 | –
520.19 K, 3000 kPa | 619.7 | –
520.25 K, 5000 kPa | 642.5 | –
520.27 K, 7000 kPa | 664.6 | –
529.04 K, 10000 kPa | 678 | –
529.91 K, 5000 kPa | 619.5 | –
530.11 K, 7000 kPa | 641.3 | –
530.36 K, 3000 kPa | 595.4 | –
534.46 K, 5000 kPa | – | 5.06e-08
534.75 K, 7000 kPa | – | 5.12e-08
534.77 K, 3000 kPa | – | 5e-08
535.01 K, 10000 kPa | – | 5.22e-08
540.06 K, 7000 kPa | 618.1 | –
540.09 K, 10000 kPa | 651.8 | –
540.12 K, 5000 kPa | 595.3 | –
540.66 K, 3000 kPa | 570.8 | –
548.94 K, 3000 kPa | 551.9 | –
549.74 K, 5000 kPa | 574.5 | –
549.76 K, 3000 kPa | – | 4.77e-08
549.87 K, 10000 kPa | 630.6 | –
549.96 K, 5000 kPa | – | 4.84e-08
549.97 K, 7000 kPa | – | 4.9e-08
549.99 K, 7000 kPa | 596.7 | –
550.17 K, 10000 kPa | – | 4.99e-08
558.46 K, 3000 kPa | 529.8 | –
559.93 K, 5000 kPa | 551.9 | –
561 K, 10000 kPa | 607 | –
562.07 K, 7000 kPa | 570.2 | –
565.49 K, 10000 kPa | – | 4.76e-08
565.86 K, 5000 kPa | – | 4.61e-08
565.87 K, 7000 kPa | – | 4.67e-08
566.27 K, 3000 kPa | – | 4.55e-08
